Data from PMC5641551, “Chemical Proteomics for Target Discovery of Head-to-Tail Cyclized Mini-Proteins” (Frontiers in Chemistry, 2017).
No end group written: not given here.

Test system: Foxo3a transcriptional activity in HEK293 cells co-transfected with 14-3-3β
Experiment: Foxo3a luciferase reporter gene assay
Format: cell-based, human
Procedure: Jurkat cells were cultured in RPMI medium containing phenol red supplemented with 10% (v/v) heat deactivated fetal calf serum and 100 U/mL penicillin/streptomycin at 37°C in humidified atmosphere of 5% CO2. HEK293 cells were cultured in Dulbecco's modified eagle high glucose medium supplied with 10% fetal calf serum and 100 U per mL penicillin/streptomycin. Cell transfection was carried out by Jetprime® according to the manufacturer's recommendation (Polyplus, Illkirch, France).
Forkhead box protein 3a induced transcriptional activity was measured on transiently transfected HEK293 cells (5 × 10^4). The reporter plasmid encoding luciferase under the control of a promotor containing forkhead responsive elements and the human p-Foxo3a-HA plasmid were gifts of Michael Greenberg provided by the Addgene consortium (#1787 and #1789; Brunet et al., [1999]). The plasmids encoding the mouse p-14-3-3 beta-GST protein and the functional forkhead transcription factor were used in a 1.5-fold amount compared to the reporter construct. The transfection was completed after 6 h and the cells could recover for 4 h in growth medium. The cells were serum starved using 1% (v/v) fetal bovine serum in phenol red free DMEM medium supplemented with antibiotics overnight. After 4 h peptide and 24 h of fusicoccin-A treatment the luciferase assay was developed using luciferase development kit from Promega E151 (Wisconsin, United States) and the luminescence was measured on a synergy H4 plate reader (Biotek). Control compounds were the PI3K inhibitors wortmannin and LY294002 (both Sigma Aldrich). The recorded data were normalized to the non-treated control sample. Significance and IC50-values were calculated from at least two biological replicates using GraphPad Prism. Data analysis was performed by non-linear regression using a four parameter Hill equation.
If not stated in detail for the respective single experiment the statistical tests were performed using GraphPad Prism 5.04 (GraphPad, La Jolla, CA) using one-way ANOVA with Bonferonni or Dunnett's Post-hoc test. The number of technical and biological repeats was justified by analysis of error and reproducibility of results. Significance threshold P < 0.05 was applied to all experiments. For the data shown in Figure 3 three individuals for the in vivo experiments were used and each data point was performed in three technical replicates. The pull down experiments shown in Figures 4A,B were performed a single time and the data represent two technical repeats. Gel lanes were loaded with single (1x) or doubled (2x) amount of pull down proteins for better visibility. The data illustrated in Figures 4C,D were performed in two independent experiments. Silver stained gel lanes were evaluated by loading various amounts, and then the amount with optimized staining contrast was loaded and used for in-gel protein digestion. The pull down experiments shown in Figures 4E,F were performed a single time. The Western Blots and the pull down experiment shown in Figure 5 represent experiments in three and two independent experiments, respectively. Experiments in a well-based format (Figure 6) were performed with three technical and two biological replicates. All data illustrated in this manuscript show the mean ± standard deviation (SD) unless stated otherwise. The MS based protein identifications were performed in two technical analyses for each sample.
Figure 6 Foxo3a luciferase reporter assay. The modulation of the Akt/PI3K/Foxo3a pathway by the cyclotide [T20K]kB1 binding to 14-3-3 proteins was investigated. HEK293 cells were transiently transfected with Foxo3a-Luc plasmid encoding luciferase under a promotor with Foxo response elements, Foxo3a and 14-3-3β. For control the reporter plasmid (basal value) was also co-transfected with the single functional effector proteins 14-3-3β or Foxo3a. Cells were treated under starving conditions with peptide or fusicoccin-A (FC-A) for 4 h or 24 h, respectively. […]

CGETCVGGTCNTPGCKCSWPVCTRNGLPV (also: bicyclic or more (positions not given here)) [[T20K]kB1, synthetic cyclotide drug candidate, Thr20 to Lys mutant of kalata B1]
Foxo3a transcriptional activity, effect in words (HEK293, luciferase reporter, PI3K inhibitors as controls, peptide 4 h): reduced the transcriptional activity of Foxo3a in a concentration-dependent manner
IC50 (HEK293 transfected with Foxo3a-Luc, Foxo3a and 14-3-3β, peptide treatment 4 h, IC50 ± SD, two independent experiments, four parameter Hill fit, read-out: IC50, reduction of Foxo3a transcriptional activity (luciferase)): 5.27 ± 0.25 µM
effect on 14-3-3/Foxo3a protein complex (suggested) (inferred from decreased Foxo3a transcriptional activity in reporter assay): exerts a stabilizing effect on the 14-3-3/Foxo3a protein complex
